System: WT mice
Assay: High-altitude balance beam (11 mm) experiment 1, WT mice
Assay type: in vivo, mouse
Conditions: 5 mg/kg/d intragastric
Protocol: 7-week-old N171-82Q HD male mice were paired with female B6C3F1/J hybrid mice to obtain newborn mice. From 21 days of age, male mice were housed in separate cages. 0.5 cm of mouse tail tissue was removed to extract DNA to determine the genotype of the mouse, such that N171-82Q HD mice and WT mice needed for the experiment were obtained. The mice were randomly divided into WT Vehicle group (normal mice), WT test compound group (administration group of normal mice, 5 mg/kg/d, n=10), HD Vehicle group (blank group of HD mice, n=15), HD test compound group (administration groups 1-5 of HD mice, 5 mg/kg/d, n=10). The test compound was suspended in 1% CMC-Na solution and administered by intragastric administration until the end of the study. The weights of the mice were measured every week. Behavioral tests were performed at 12 weeks, 18 weeks, and 24 weeks of age to investigate motor function. At 20 weeks, 3 samples of tissue from each group were used for western blotting and immunohistochemistry. At 24 weeks, MRI scans were performed. At the end of the study, the effect of the test compound on the mortality of mice was evaluated. The software Sigmaplot 13.0 was used for statistical analysis of the data, and the data of each group was expressed as mean standard error (x±SEM). Behavioral test results were analyzed using two-way (genotype and processing factor) ANOVA and post-ho tests, the comparison and statistics of weight data were performed using two-way (genotype and age) ANOVA of repeated measures, and mortality was counted using Kaplan-Meier method. Other measurement data were analyzed by one-way ANOVA. P<0.05 was considered statistically significant. The motor function of mice was evaluated by the rotarod experiment and three types of balance beam experiments. […] If the time for crossing the beams was greater than 60 seconds, it was recorded as 60 seconds. a round balance beam with a length of 80 cm and a diameter of 11 mm was place at a height of about 50 cm from the ground. […]

Compound: O=c1cc(-c2ccc(N3CCCCC3)cc2)oc2c(O)c(O)ccc12 [Example 1, 7,8-dihydroxy-2-(4-(piperidin-1-yl)phenyl)-4H-chromen-4-one]
- Time for crossing the beams, high-altitude balance beam (11 mm) (12 w): 8.18 ± 1.99 s
- Time for crossing the beams, high-altitude balance beam (11 mm) (18 w): 7.55 ± 2.42 s
- Time for crossing the beams, high-altitude balance beam (11 mm) (24 w): 8.18 ± 4.29 s

— patent US20200390755A1, “COMPOUND FOR TREATING NERVOUS SYSTEM DISEASES AND USE THEREOF” (SHAANXI MICOT TECHNOLOGY CO., LTD., priority 2018, published 2020)
